Here are results for 1 compound from article PMC10451377, “Rationally Designed Pyrimidine Compounds: Promising Novel Antibiotics for the Treatment of Staphylococcus aureus-Associated Bovine Mastitis” (Antibiotics, 2023).

≈ marks a conversion by molar mass, not a printed value. Entries after “also recorded” stand apart in the source; their conditions may differ.

Series [1] relates to Staphylococcus aureus CMRSA-10. Put plainly: Broth microdilution MIC. The format is cell-based. The following applies: CMRSA10, S. aureus CMRSA-10, read-out: Broth Microdilution MIC. The text has this:
(§1) Reference strains for this study (S. aureus ATCC 29213, ATCC 29740 [bovine mastitis strain Newbould], S. epidermidis ATCC 12228, E. coli ATCC 35695, E. faecalis ATCC 29212) were obtained from the American Type Culture Collection (ATCC, Rockville, MD). S. aureus strains CMRSA-10 and CMRSA-2 were obtained from the Laboratoire de santé publique du Québec (LSPQ, Sainte-Anne-de-Bellevue, QC, Canada) and are Canadian CA-MRSA USA-300 and HA-MRSA USA-100 clones, respectively. The strain E. coli imp4213 (lptD), used as a control in MIC assays, is a derivative of E. coli ATCC 35695 (E. coli MC4100) with an increased membrane permeability. […] Other MRSA strains used in this study are clinical isolates of human origin obtained from the microbiology laboratory of the Centre Hospitalier Universitaire de Sherbrooke (CHUS, Sherbrooke, QC, Canada). Bovine mastitis strains (S. aureus, S. chromogenes, S. haemolyticus, S. hominis, S. simulans) were obtained from the Canadian Bovine Mastitis and Milk Quality Research Network (CBRQMN, St-Hyacinthe, QC, Canada). Among these strains, S. aureus 2117 is a high producer of biofilm and was used in the biofilm-eradication assay. S. epidermidis isolates were provided by Centre de Recherche en Infectiologie (CRI) de Québec (Québec, QC, Canada).

Series [2] deals with Staphylococcus aureus CMRSA-2. As to the kind of experiment: Broth microdilution MIC. The format is cell-based. As to conditions: CMRSA2, S. aureus CMRSA-2, read-out: Broth Microdilution MIC.
From the text: as §1

Series [3] concerns S. chromogenes. As to the kind of experiment: Susceptibility of isolate panel (MIC50, MIC90, range). It counts as cell-based.
From the text: as §1
(§2) The antibacterial activity of the most promising compound, PC206, was also evaluated against larger groups of clinical isolates of human and animal origin. The MIC50 and MIC90 values represented the concentrations of drug required to inhibit the growth of 50% and 90% of the bacterial strains tested, respectively.

Series [4] has as its system S. epidermidis. The description is as above. The format is cell-based. As to conditions: S. epidermidis, 10 isolates.
From the text: as §1, §2

Series [5] relates to S. hominis. The series is described as above. It counts as cell-based. As to conditions: S. hominis, 10 isolates.
From the text: as §1, §2

Series [6] deals with S. simulans. The series is described as above. The format is cell-based.
From the text: as §1, §2

Series [7] in a line: MTT assay. The format is cell-based. The following applies: human, HepG2 cells.
The nature of series [8]: MTT assay. The format is cell-based. As to conditions: bovine, MAC-T cells.
Series [9] in a line: Metabolic stability. It counts as in vitro ADME. The following applies: mouse, CD-1 female mice liver S9 fraction, 60 min, mono-exponential decay model, read-out: Half-life (T1/2). The method, then: All incubations were performed minimally in triplicate. A total of 1 mL of mice liver S9 fraction (XenoTech, Kansas City, KS, USA) was fortified with 50 μL of NADPH-regenerating solution A and 10 μL of solution B (Corning BD Biosciences catalog no. 451200) and preincubated at 37 °C for 5 min prior to the addition of PC206. Immediately after fortification of PC206 into the mice liver S9 fraction containing the NADPH-regeneration system, the sampling points were taken at 2, 5, 10, 15, 30, 45 and 60 min for metabolic stability experiments (i.e., the substrate concentration was 10 μM). Samples of 50 μL were taken and mixed with 250 μL of the internal standard solution (caffeine) in microcentrifuge tubes. The samples were centrifuged at 12,000× g for 10 min and 200 μL of the supernatant was transferred into an injection vial for HPLC-MS analysis. A Q Exactive Orbitrap Mass Spectrometer was interfaced with a Vanquish Flex UHPLC system (Thermo Fisher Scientific, Rochester, NY, USA). […] Targeted drug quantification was performed by MS detection using specific precursor masses based on monoisotopic masses (i.e., [M + H]^+ ions). Quantification was performed by extracting specific precursor ions using a 5 ppm mass window.

The nature of series [10]: Initial safety assessment in cows. It counts as in vivo. As to conditions: single intramammary infusion of 100, 250 or 500 mg. The procedure: The innocuity of PC206 was evaluated in cows, as previously described for other test substances. Following morning milking, each of the four mammary gland quarters […] was infused with various doses of PC206 (100, 250, 500 mg) or saline as a negative control. […] Cows were milked using an individual quarter-milking unit in order to measure individual quarter-milk production. PC206 concentration in milk was also measured; milk samples were diluted with an equal volume of isopropanol and washed 3 times with hexane. PC206 was extracted using ethyl acetate, filtered on Na2SO4, and evaporated. The dried samples were diluted 80:20 in ACN:H2O containing an internal standard. The content of PC206 was determined using single-ion monitoring (SIMS) on UPLC-MS.

Series [11] can be described thus: Chemical stability. The format is physicochemical.
Series [12] relates to Staphylococcus epidermidis ATCC 12228. As to the kind of experiment: Broth microdilution MIC. As to conditions: ATCC12228, read-out: Broth Microdilution MIC.
The subject of series [13] is all reference staphylococci strains tested, including MRSA. As to the kind of experiment: Broth microdilution MIC, summary over reference staphylococci. The following applies: Staphylococcus aureus, read-out: MIC ranging, against all reference staphylococci strains tested.

On to `CCCCCCNc1cc(N)nc(N)n1` [PC206], for which the minimal inhibitory concentration (MIC) in [1] is 4 µg/mL (≈ 19.1 µM); in series [2] it was 8 µg/mL (≈ 38.2 µM); in [12], 4 µg/mL (≈ 19.1 µM); in series [13], 4 to 8 µg/mL (≈ 19.1 to 38.2 µM). Moreover, the MIC90 in series [3] was 128 µg/mL (≈ 612 µM); in [4] (Staphylococcus epidermidis, read-out: MIC90), 8 µg/mL (≈ 38.2 µM); in [5] (Staphylococcus hominis, read-out: MIC90) it was 32 µg/mL (≈ 153 µM); in [6] (Staphylococcus simulans), 128 µg/mL (≈ 612 µM). Also, the “MIC Range” value in [3] (S. chromogenes, 5 isolates) lay within 16 to 128 µg/mL; in series [4] it was 2 to 16 µg/mL; in [5], 1 to 32 µg/mL; in series [6] (S. simulans, 5 isolates) it was 64 to 128 µg/mL. Moreover, the MIC50 worked out at 32 µg/mL (≈ 153 µM) in [3] (S. chromogenes, 5 isolates, read-out: MIC50); 4 µg/mL (≈ 19.1 µM) in [4] (Staphylococcus epidermidis, read-out: MIC50); 8 µg/mL (≈ 38.2 µM) in [5] (Staphylococcus hominis, read-out: MIC50); 64 µg/mL (≈ 306 µM) in [6] (Staphylococcus simulans, S. simulans, 5 isolates, read-out: MIC50). In addition, the CC50 at 24 h in series [7] came to 160 ± 31 µM; in series [8] (24 h), 317 ± 43 µM; in series [8] (converted from μM), 66 µg/mL. For the same compound, in series [9], the half-life at 10 µM is 1.39 h. The Body temperature result in [10] was “around 38 °C”. The “Redness or swelling of quarters at milking” value in [10] is “Neither redness nor swelling was observed”. In addition, in [10] (69 h), the “Somatic cell counts and quarter-milk production” value is “remained unaffected; also recorded: did not impact somatic cells count”. For the same compound, the Stability in solution entry in series [11] is given as “remains stable in solution”.
